Where two headings read alike, the source gives them in different places.
Key:
Format in all cases: in vivo
[1] = system: Echinochloa crus-galli (ECHCG); test: Pre-emergence herbicidal action against ECHCG; details: dosage 320 g/ha
Summary of the method: (§1)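 Greenhouse pot trial: seeds sown, soil-covered, sprayed before emergence with compound in water (0.5% additive; 600 l/ha; ≤320 g/ha). Scoring visual, ~3 weeks, 0–100% scale vs untreated.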

[2] = system: Abutilon theophrasti (ABUTH); test: Pre-emergence herbicidal action against ABUTH; details: Dosage column 320 g/ha (title prints 3200 g/ha); scored visually after about 3 weeks; 100% = plants have died
From the text: Seeds of monocotyledonous and dicotyledonous weed plants and crop plants are placed in plastic or organic planting pots and covered with soil. The compounds of the invention, formulated in the form of wettable powders (WP) or as emulsion concentrates (EC), are then applied to the surface of the covering soil as aqueous suspension or emulsion with addition of 0.5% additive at a water application rate equivalent to 600 l/ha. After the treatment, the pots are placed in a greenhouse and kept under good growth conditions for the trial plants. After about 3 weeks, the effect of the preparations is scored visually in comparison with untreated controls as percentages. For example, 100% activity=the plants have died, 0% activity=like control plants.
Tables A1 to A13 below show the effects of selected compounds of the general formula (I) on various harmful plants and at an application rate corresponding to 320 g/ha or lower, which were obtained by the experimental procedure mentioned above. The appendices “a”, “b” and “c” give differentiation by dosage used with otherwise the same harmful plants tested.

[3] = system: Matricaria inodora (MATIN); test: Pre-emergence herbicidal action against MATIN; details: dosage 320 g/ha
Summary of the method: as §1

[4] = system: Verconica persica (VERPE); test: Post-emergence herbicidal action against VERPE
Summary of the method: (§2)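 Rates were 320 g/ha or below, applied as aqueous WP/EC spray with 0.5% additive (600 l/ha) onto one-leaf-stage plants. About 3 weeks later in the greenhouse, damage was scored visually against untreated plants on a 0–100% scale, where 100% means plants died.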

Avena fatua (AVEFA) [5] = test: Pre-emergence herbicidal action against AVEFA; details: visual scoring after about 3 weeks vs untreated controls
Summary of the method: as §1

[6] = system: Alopecurus myosuroides (ALOMY); test: Pre-emergence herbicidal action against ALOMY; details: scored visually after about 3 weeks, 100% = plants have died
Summary of the method: as §1

[7] = system: Abutilon theophrasti (ABUTH); test: Post-emergence herbicidal action against ABUTH; details: visual rating about 3 weeks after treatment vs untreated controls (100% = plants have died, 0% = like control plants)
Summary of the method: as §2

Setaria viridis (SETVI) [8] = test: Post-emergence herbicidal action against SETVI
Summary of the method: as §2

[9] = system: Echinochloa crus-galli (ECHCG); test: Post-emergence herbicidal action against ECHCG
Summary of the method: as §2

[10] = system: Amaranthus retroflexus (AMARE); test: Post-emergence herbicidal action against AMARE
Summary of the method: as §2

Oryza sativa (ORYSA) = details: crop plant compatibility
Summary of the method: (§3)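 Effects were read visually as % versus untreated controls (0% = no effect, 100% = death) about 3 weeks post-treatment. Application was a post-emergence spray at the one-leaf stage of WP/EC formulations with 0.5% additive at 600 l/ha. Different dosages are denoted a, b and c.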

[11] = system: Polygonum convolvulus (POLCO); test: Pre-emergence herbicidal action against POLCO
Summary of the method: as §1

Lolium rigidum (LOLRI) [12] = test: Pre-emergence herbicidal action against LOLRI
Summary of the method: as §1

[13] = system: Polygonum convolvulus (POLCO); test: Post-emergence herbicidal action against POLCO
Summary of the method: as §2

Lolium rigidum (LOLRI) [14] = test: Post-emergence herbicidal action against LOLRI
Summary of the method: as §2

[15] = system: Alopecurus myosuroides (ALOMY); test: Post-emergence herbicidal action against ALOMY; details: visual rating about 3 weeks after treatment vs untreated controls (100% = plants have died, 0% = like control plants)
Summary of the method: as §2

Viola tricolor (VIOTR) [16] = test: Post-emergence herbicidal action against VIOTR
Summary of the method: as §2

Setaria viridis (SETVI) [17] = test: Pre-emergence herbicidal action against SETVI
Summary of the method: as §1

[18] = system: Verconica persica (VERPE); test: Pre-emergence herbicidal action against VERPE
Summary of the method: as §1

[19] = system: Amaranthus retroflexus (AMARE); test: Pre-emergence herbicidal action against AMARE; details: visual scoring after about 3 weeks vs untreated controls
Summary of the method: as §1

Avena fatua (AVEFA) [20] = test: Post-emergence herbicidal action against AVEFA; details: visual rating about 3 weeks after treatment
Summary of the method: as §2

Viola tricolor (VIOTR) [21] = test: Pre-emergence herbicidal action against VIOTR
Summary of the method: as §1

[22] = system: Pharbitis purpurea (PHBPU); test: Post-emergence herbicidal action against PHBPU; details: dosage 320 g/ha
Summary of the method: as §2

Zea mays (ZEAMX) = system: Zea mays (ZEAMX)
Summary of the method: as §3

[23] = system: Pharbitis purpurea (PHBPU); test: Pre-emergence herbicidal action against PHBPU; details: dosage 320 g/ha
Summary of the method: as §1

[24] = 80 g/ha, effect in comparison to untreated controls

| Structure (SMILES) | Pre-emergence action against ECHCG in % [1] | Pre-emergence action against ABUTH [2] | Pre-emergence action against MATIN in % [3] | Post-emergence action against VERPE in % ([4]; dosage 80 g/ha) | Pre-emergence action against AVEFA in % (Avena fatua (AVEFA) [5]; 80 g/ha) | Pre-emergence action against AVEFA in % (Avena fatua (AVEFA) [5]; 320 g/ha) | Pre-emergence action against ALOMY ([6]; 80 g/ha) | Pre-emergence action against ALOMY ([6]; 320 g/ha) | Post-emergence action against SETVI in % (Setaria viridis (SETVI) [8]; dosage 80 g/ha) | Post-emergence action against ORYSA in % (Oryza sativa (ORYSA); [24]) | Pre-emergence action against POLCO in % ([11]; dosage 320 g/ha) | Pre-emergence action against LOLRI in % (Lolium rigidum (LOLRI) [12]; dosage 80 g/ha) | Pre-emergence action against LOLRI in % (Lolium rigidum (LOLRI) [12]; dosage 320 g/ha) | Post-emergence action against LOLRI in % (Lolium rigidum (LOLRI) [14]; dosage 80 g/ha) | Post-emergence action against ALOMY in % ([15]; 80 g/ha) | Pre-emergence action against SETVI in % (Setaria viridis (SETVI) [17]; dosage 320 g/ha) | Pre-emergence action against VERPE in % ([18]; dosage 320 g/ha) | Pre-emergence action against AMARE in % ([19]; 80 g/ha) | Pre-emergence action against AMARE in % ([19]; 320 g/ha) | Post-emergence action against AVEFA in % (Avena fatua (AVEFA) [20]; 80 g/ha) | other results |
| --- | --- | --- | --- | --- | --- | --- | --- | --- | --- | --- | --- | --- | --- | --- | --- | --- | --- | --- | --- | --- | --- |
| COC(=O)CNC(=O)[C@@H](C)Oc1nn(-c2ccccn2)c(-c2ccc(F)nc2)c1Cl [Example I-339] | 100% | 90% | 100% | 80% | 100% | 100% | 100% | 100% | 90% | 0% | 100% | 100% | 100% | 90% | 90% | 100% | 100% | 100% | 100% | 90% | Post-emergence action against VERPE in % ([4]; 320 g/ha, VERPE): 90%; Post-emergence action against ABUTH in % ([7]; 80 g/ha): 80%; Post-emergence action against ABUTH in % ([7]; 320 g/ha): 90%; Post-emergence action against SETVI in % (Setaria viridis (SETVI) [8]; dosage 320 g/ha): 90%; Post-emergence action against ECHCG in % ([9]; dosage 80 g/ha): 90%; Post-emergence action against ECHCG in % ([9]; dosage 320 g/ha): 90%; Post-emergence action against AMARE in % ([10]; 80 g/ha, visual rating about 3 weeks after treatment vs untreated controls (100% = plants have died, 0% = like control plants)): 90%; Post-emergence action against AMARE in % ([10]; 320 g/ha, visual rating about 3 weeks after treatment): 90%; Pre-emergence action against POLCO in % ([11]; dosage 80 g/ha): 90%; Post-emergence action against POLCO in % ([13]; dosage 80 g/ha): 90%; Post-emergence action against POLCO in % ([13]; dosage 320 g/ha): 90%; Post-emergence action against LOLRI in % (Lolium rigidum (LOLRI) [14]; dosage 320 g/ha): 90%; Post-emergence action against ALOMY in % ([15]; 320 g/ha): 100%; Post-emergence action against VIOTR in % (Viola tricolor (VIOTR) [16]; 80 g/ha): 90%; Post-emergence action against VIOTR in % (Viola tricolor (VIOTR) [16]; 320 g/ha): 90%; Pre-emergence action against SETVI in % (Setaria viridis (SETVI) [17]; dosage 80 g/ha): 100%; Post-emergence action against AVEFA in % (Avena fatua (AVEFA) [20]; 320 g/ha): 90%; Pre-emergence action against VIOTR in % (Viola tricolor (VIOTR) [21]; 320 g/ha, Viola tricolor): 100%; Pre-emergence action against VIOTR in % (Viola tricolor (VIOTR) [21]; dosage 80 g/ha): 100%; Post-emergence action against PHBPU in % [22]: 80% |
| C[C@@H](Oc1nn(-c2ncccc2F)c(-c2ccc(F)nc2)c1Br)C(=O)OCc1ccccn1 [Example I-52] | 100% | 80% | 90% | 90% | 90% | 100% | 90% | 100% | 80% | 10% | 90% | 90% | 100% | 80% | 90% | 100% | 100% | 80% | 100% | 90% | Post-emergence action against ZEAMX in % (crop plant compatibility) (Zea mays (ZEAMX); 20 g/ha, ZEAMX, effect in comparison to untreated controls): 0%; Post-emergence action against ZEAMX in % (Zea mays (ZEAMX); crop plant compatibility, 80 g/ha, effect vs untreated controls): 10%; Post-emergence action against ORYSA in % (Oryza sativa (ORYSA); 20 g/ha, effect vs untreated controls): 0%; Pre-emergence action against PHBPU in % [23]: 90%; Pre-emergence action against VERPE in % ([18]; dosage 80 g/ha): 80%; Pre-emergence action against VIOTR in % (Viola tricolor (VIOTR) [21]; 320 g/ha, Viola tricolor): 100%; Pre-emergence action against VIOTR in % (Viola tricolor (VIOTR) [21]; dosage 80 g/ha): 100% |

— patent publication US20240041042A1, “1-(PYRIDYL)-5-AZINYLPYRAZOLE DERIVATIVES, AND THEIR USE FOR CONTROL OF UNDESIRED PLANT GROWTH” (Bayer Aktiengesellschaft, priority 2020, published 2024)
